# Test results from EP2601945A1 (Thomale, Jürgen, priority 2011, dated 2013).
# Several values for one entry are separate records, joined by “and”; a condition that tells them apart may be missing. Equal entries are not always repeated. Entries after “also recorded” stand apart in the source; their conditions may differ.
# What was measured:
# [1] = system: human cancer cell lines established from tumors (lung, bladder, testis); test: Co-application of cis-platin and DPH to cancer cell lines: DNA adducts by ICA; type: cell-based; details: cis-platin alone or in combination with DPH
# Kras/p53 deficient mice = test: Survival upon repetitive cis-platin treatment; type: in vivo; details: repetitive cis-platin 9 mg/kg in combination with DPH 50 mg/kg versus cis-platin alone (Figure 16)
# Pt-GG adducts in DNA [2] = test: In vivo screening for cis-platin uptake inhibitors and DPH co-administration, ICA of Pt-GG adducts; parameters: species or system mice
# Protocol: (§1) The sacrificed animals were immediately dissected. Kidneys and lungs were submerged in embedding medium (Tissue-Tek O.C.T. Compound) and frozen in liquid nitrogen. Cochleae were dissected and fixed by intralabyrinthine perfusion with Carnoy's solution (3 hours; for DNA adduct staining) or with formaldehyde (4 % in PBS; 1 hour; for OCT protein staining). Cochleae were decalcified in EDTA solution (10 % w/v in PBS) for 3 days and then placed in sucrose solutions (5 % in PBS for 12 hours and 15 % in PBS for 5 hours). After that samples were imbedded in Tissue-Tek medium, frozen and cryosections of 10 µm cut.
# (§2) Frozen tissue sections of the inner ear or kidneys on ImmunoSelect slides were fixed in methanol at -20°C for at least 2 hours or overnight and then rehydrated for 10 minutes in PBS, at room temperature. To provide better antibody penetration in the tissue structures the samples underwent alkaline permeabilisation of cytoplasmic and nuclear membranes for 5 minutes at 0°C, followed by washing in PBS at room temperature for 5 minutes. The proteolytic cleavage of cytoplasmic and nuclear proteins was performed in two steps. At first, a pre-warmed pepsin solution (60 µg /ml for cell culture or 100 µg/ml for tissue sections in PBS/HCl) was applied onto the tissue sections and incubated for 10 minutes at 37°C in a humidified chamber. The incubation with pepsin was followed by washing in PBS for 10 minutes at room temperature. In a second step tissue sections were incubated with pre-warmed proteinase K solution (40 µg/ml for cell cultures or 50-100 µg /ml for tissue sections in proteinase K buffer) for 10 minutes at 37°C in a humidified chamber. Subsequently the sections were washed in 0.2 % glycine in PBS for 10 minutes at room temperature. Non-specific binding of the antibodies was inhibited by incubation with a blocking solution of 1 % casein in PBS for 30 minutes at room temperature. The samples were then incubated with a monoclonal antibody (R-C18, Liedert et al., 2006) specific for Pt-GG adducts in DNA (0.1 µg/ml in 0.1 % BSA/PBS) over night at 4°C in the humidified chamber. Subsequently, the slides were washed in 0.05 % Tween 20 in PBS for 5 minutes at room temperature and then in PBS for 5 minutes. The incubation with secondary Cy3-labeled rabbit anti-(rat Ig) antibodies, was performed (0.2 µg/ml in 0.1 % BSA/PBS) for 60 minutes at 37°C in the humidified chamber, followed by washing in 0.05 % Tween 20 in PBS for 5 minutes at room temperature and then in PBS for 5 minutes. The nuclear DNA was counterstained with DAPI (1 µg/ml in PBS) for 30 minutes at room temperature. The slides were then washed in PBS. Finally, the samples were embedded with a densification compound "[…]". The quantification of immuno- and DNA-fluorescence was performed by means of a microscope-coupled digital image analysis system ACAS 6.0 Cytometry Analysis System. Adduct levels in the nuclear DNA of individual cells were calculated by normalizing antibody-derived fluorescence signals to the corresponding DNA content of the same nucleus, and were expressed as arbitrary fluorescence units (AFUs). Data were assigned to specific cell types as determined by histochemistry.
# The mice were separated into two groups for pretreatment with low or high doses of the test compounds. […] The low dose group received half the dose of the high dose group (50, 50, 30 or 10 mg/kg, respectively). […] Cochleae and kidneys were dissected for immunostaining and ICA analyses of Pt-GG adduct levels in specific cell types (Figure 8). In tissue sections from mice pretreated with quinine or butylscopolamine no inhibition of DNA platination was observed, independent of the dosing, in either of the three target cell types (renal tubulus epithelium cells (Figure 8 A), cochlear marginal cells (Figure 8B) and outer hair cells (Figure 8 C)). […]
# hearing capability = test: BAER hearing test in XPA-/- and wild type mice after low dose cis-platin; details: cis-platin cumulative dose 3.5 mg/kg within two weeks, NER-deficient XPA-/- mice
# Pt-GG adducts in DNA [3] = test: ICA of Pt-GG adducts in cochlear cells of XPA-/- versus wild type mice; type: in vivo
# Protocol: Frozen tissue sections of the inner ear or kidneys on ImmunoSelect slides were fixed in methanol at -20°C for at least 2 hours or overnight and then rehydrated for 10 minutes in PBS, at room temperature. To provide better antibody penetration in the tissue structures the samples underwent alkaline permeabilisation of cytoplasmic and nuclear membranes for 5 minutes at 0°C, followed by washing in PBS at room temperature for 5 minutes. The proteolytic cleavage of cytoplasmic and nuclear proteins was performed in two steps. At first, a pre-warmed pepsin solution (60 µg /ml for cell culture or 100 µg/ml for tissue sections in PBS/HCl) was applied onto the tissue sections and incubated for 10 minutes at 37°C in a humidified chamber. The incubation with pepsin was followed by washing in PBS for 10 minutes at room temperature. […] The quantification of immuno- and DNA-fluorescence was performed by means of a microscope-coupled digital image analysis system ACAS 6.0 Cytometry Analysis System. Adduct levels in the nuclear DNA of individual cells were calculated by normalizing antibody-derived fluorescence signals to the corresponding DNA content of the same nucleus, and were expressed as arbitrary fluorescence units (AFUs). Data were assigned to specific cell types as determined by histochemistry. […]
# Pt-GG adducts in DNA [4] = test: Immunocytological assay (ICA) of Pt-GG adducts in kidney and cochlea cells after cis-platin treatment; type: in vivo, mice
# Protocol: as §1, §2
# 24 hours later, the inner ears and kidneys were dissected, kidneys were frozen immediately and cochleae were fixed and decalcified. Cryosections (10 µm) prepared from the tissues were placed onto specific adhesion slides. Slides were then immunostained for the visualization of platinum-guanine-guanine (Pt-GG) intrastrand adducts in the nuclei of individual cells by using the adduct-specific monoclonal antibody R-C18 in an immunocytological assay (ICA) (Liedert et al., 2006). The tissue sections were then stained with a secondary Cy3-labeled goat-anti-rat antibody (Cy3), counterstained with DAPI for nuclear DNA, and analyzed in the fluorescence microscope (Figure 1). Serial sections from the same tissues were stained for morphological orientation with hematoxyline and eosin (H&E). […]
# Pt-GG adducts in DNA [5] = test: as above; type: in vivo, mice; details: cis-platin 12.5 mg/kg single dose; measured 2, 16, 48, 72 h
# [6] = DPH 0 to 57 mg/kg i.p. 30 minutes prior to cis-platin 10 mg/kg (Figure 9)
# [7] = DPH 57 mg/kg 30 minutes before cis-platin 12.5 mg/kg, 2, 16, 48, 72 hours
# [8] = high dose of 60 mg/kg i.p. 1 h before cis-platin 10 mg/kg, 24 h
# [9] = cis-platin 10 mg/kg i.p., cochlea, 24 h (Figure 3 B)
# [10] = cis-platin 10 mg/kg i.p., kidney
# [11] = cis-platin 10 mg/kg i.p., kidney, 24 h (Figure 3 A)
smiles,measurement,setting,value
"CN(C)CCOC(c1ccccc1)c1ccccc1 [DPH, diphenhydramine]",effect on the formation of DNA adducts (ICA),[1],no inhibitory effect
same,survival,Kras/p53 deficient mice,improved survival rates
same,adduct accumulation in proximal tubule cells and marginal cells,Pt-GG adducts in DNA [2]; [6],dose-dependent inhibition
same,adduct levels in distal tubule cells and basal and intermediate cells of the stria vascularis,Pt-GG adducts in DNA [2]; [6],No significant alterations
same,"DNA platination in marginal and outer hair cells versus cis-platin alone, all time points",Pt-GG adducts in DNA [2]; [7],drastically decreased
same,capability to repair the DNA damage,Pt-GG adducts in DNA [2]; [7],no obvious differences
same,inhibition of the formation of Pt-adducts in outer hair cells and marginal cells,Pt-GG adducts in DNA [2]; DPH along with cis-platin (description),about 70%
same,formation of Pt-adducts in dorsal root ganglion (DRG) neurons,"Pt-GG adducts in DNA [2]; cis-platin 15 mg/kg with DPH 50 mg/kg, 24 h (Figure 9 C)",inhibited; also recorded: significantly reduced
same,"shielding from DNA damage, cochlear marginal cells",Pt-GG adducts in DNA [2]; [8],70%
same,"shielding from DNA damage, outer hair cells",Pt-GG adducts in DNA [2]; [8],about 50%
same,"shielding from DNA damage, proximal tubule cells",Pt-GG adducts in DNA [2]; [8],75%
same,adduct levels in other cell types of the inner ear,Pt-GG adducts in DNA [2]; repetitive cis-platin 5 mg/kg every second day plus DPH 57 mg/kg,remained unchanged
same,adducts in target cells of kidney and inner ear versus cis-platin alone group,Pt-GG adducts in DNA [2]; repetitive cis-platin 5 mg/kg every second day plus DPH 57 mg/kg (Figure 12),by far less adducts
"N.N.[Cl][Pt][Cl] [cis-platin, cis-diaminedichloro-platinum(II)]","reduction of hearing capability (BAER), XPA-/- mice",hearing capability,45% and ~50%
same,"adduct levels in inner ear cis-platin target cells, XPA -/- mice versus wild type littermates",Pt-GG adducts in DNA [3]; cis-platin cumulated dose 3.5 mg/kg (Figure 7 B legend),more than 3 times
same,"levels of DNA damage in marginal cells, XPA-/- mice compared to wild type littermates",Pt-GG adducts in DNA [3]; cis-platin cumulative dose 3.5 mg/kg (Figure 7 B),about 2.7 fold
same,"levels of Pt-GG adducts, OHC vs. adjacent cells in the organ of Corti",Pt-GG adducts in DNA [4]; cis-platin 10 mg/kg i.p.,11 fold
same,"levels of Pt-GG adducts, marginal cells compared to other cell types in the stria vascularis",Pt-GG adducts in DNA [4]; cis-platin 10 mg/kg i.p.,5 fold
same,"levels of Pt-GG adducts, adjacent cells in the organ of Corti",Pt-GG adducts in DNA [4]; [9],1.19 AFUs
same,"levels of Pt-GG adducts, other cell types in the stria vascularis",Pt-GG adducts in DNA [4]; [9],2.08 AFUs
same,"levels of Pt-GG adducts, OHC (outer hair cells)","Pt-GG adducts in DNA [4]; cis-platin 10 mg/kg i.p., cochlea, organ of Corti, 24 h (Figure 3 B)",13.26 AFUs
same,"levels of Pt-GG adducts, marginal cells","Pt-GG adducts in DNA [4]; cis-platin 10 mg/kg i.p., cochlea, stria vascularis, 24 h (Figure 3 B)","9,85 AFUs"
same,"platination level, distal tubular cells versus glomerulus cells",Pt-GG adducts in DNA [4]; [10],twice as high
same,"platination level, proximal tubular cells versus distal tubular cells",Pt-GG adducts in DNA [4]; [10],7 fold
same,"platination level (Pt-GG adducts), distal tubular cells",Pt-GG adducts in DNA [4]; [11],2.61 AFUs
same,"platination level (Pt-GG adducts), glomerulus cells",Pt-GG adducts in DNA [4]; [11],0.97 AFUs
same,"platination level (Pt-GG adducts), proximal tubular cells",Pt-GG adducts in DNA [4]; [11],18.97 AFUs
same,"adduct levels of non-marginal cells of the stria vascularis, lower than marginal cells","Pt-GG adducts in DNA [4]; cis-platin 10 mg/kg single dose, 24 h, turns of the cochlea (Figure 4)",10 fold
same,"time at which Pt-GG levels peaked, OHCs",Pt-GG adducts in DNA [5],16 h
same,"time at which Pt-GG levels peaked, marginal cells",Pt-GG adducts in DNA [5],48 h
